Assay [1] deals with T1, ArgF (Mycobacterium tuberculosis, UniProt P9WIT9). The assay is described as follows: biochemical. The following applies: for ΔTm at 5000 µM: fragments at 5 mM, 5 µM ArgF, 5% DMSO. It counts as binding.
Method: Fragment screening was carried out in a 96-well PCR plate using a CFX Connect Real-time PCR Detection System (Bio-Rad) for DSF. […] For ArgF each 25 μL reaction mixture contained 5 µM ArgF, 25 mM Tris-HCl (pH 8.0), 150 mM NaCl, 5x SYPRO Orange dye, 5 mM fragments and 5% DMSO (v/v). […] The protocol implemented increased temperature by 0.5 °C after every 30 s, going from 25 °C to 95 °C and measuring SYPRO Orange fluorescence for each temperature cycle. The melt curve RFU (relative fluorescence units) and derivative -d(RFU)/dT values were analysed and plotted using a macros-enabled Excel Workbook: the minima of the melt curves were recorded as the melting temperature (Tm) of the enzymes in the presence of each fragment. The Tm of the reference control (protein in the presence of DMSO) was subtracted from all the readings to calculate ΔTm.
The target in assay [2] is T1, ArgF. Nature of the assay: Isothermal titration calorimetry with ArgF. To be noted: 25 °C, single-site model; read-out: ITC Kd. Type of assay: binding. Here is the method: ArgF was dialysed in 50 mM HEPES pH 8.0, 200 mM NaCl before it was loaded into the calorimetry cell at concentrations of 75–100 μM with the addition of 1 mM DTT. Ligand solutions at concentrations of 1 mM were dissolved in the same buffer and typically injected between 0.5 μL and 2 μL at 150 s intervals with stirring at 750 rpm. Buffer-ligand titrations were carried out as reference runs and subtracted from the protein–ligand titration to remove the heat of dilution. Data were analysed by fitting a simple single-site model using Origin software (Microcal).
Background: In ITC the heat of successive injections is recorded.

Assay [3] has as its target T2, ArgB (Mycobacterium tuberculosis, UniProt P9WQ01). Nature of the assay: Differential scanning fluorimetry (DSF) fragment screening against ArgB. The following applies: fragments at 5 mM, 10 µM ArgB, 5% DMSO. It counts as binding. Here is the method: Fragment screening was carried out in a 96-well PCR plate using a CFX Connect Real-time PCR Detection System (Bio-Rad) for DSF. For ArgB, each 25 μL reaction mixture contained 10 µM ArgB, 100 mM HEPES (pH 7.5), 200 mM NaCl, 5x SYPRO Orange, 5% DMSO (v/v), and fragments at 5 mM. For ArgF each 25 μL reaction mixture contained 5 µM ArgF, 25 mM Tris-HCl (pH 8.0), 150 mM NaCl, 5x SYPRO Orange dye, 5 mM fragments and 5% DMSO (v/v). For ArgC and ArgD, the 25 μL reaction volume consisted of the following: 2.5 μM ArgC/5 μM ArgD, 100 mM sodium phosphate pH 7, 200 mM NaCl, 5x SYPRO Orange, and 5 mM fragments (960 fragment library). The protocol implemented increased temperature by 0.5 °C after every 30 s, going from 25 °C to 95 °C and measuring SYPRO Orange fluorescence for each temperature cycle. The melt curve RFU (relative fluorescence units) and derivative -d(RFU)/dT values were analysed and plotted using a macros-enabled Excel Workbook: the minima of the melt curves were recorded as the melting temperature (Tm) of the enzymes in the presence of each fragment. The Tm of the reference control (protein in the presence of DMSO) was subtracted from all the readings to calculate ΔTm.
(DSF heats the sample and reads unfolding from a dye or from intrinsic fluorescence.)

Assay [4] deals with T2, ArgB. Nature of the assay: Ligand-observed NMR (CPMG) with ArgB, incl. displacement experiments. It counts as binding. To be noted: 2 mM fragment, 10 µM ArgB; for NMR competition with natural ligands (ATP, NAG, L-arginine): 1 mM each natural ligand.
For assay [5], the target named is T2, ArgB. The assay is described as follows: Ligand-observed NMR (STD) with ArgB. It counts as binding. To be noted: 2 mM fragment, 10 µM ArgB.
Assay [6] has as its target T2, ArgB. The assay is described as follows: biochemical. It counts as binding. To be noted: 25 °C, single-site model; read-out: ITC Kd.
The target of assay [7] is T2, ArgB. Nature of the assay: ArgB enzymatic assay (ADP release coupled to NADH oxidation, pyruvate kinase/lactate dehydrogenase). It counts as biochemical. To be noted: for IC50: 0.5 µM ArgB, 0.3 mM ATP, 1.25 mM NAG, 10% DMSO, read-out: IC50; for Nature of ArgB inhibition in enzymatic competition assays: 0.3 mM ATP or NAG, other substrate varied. As to the method:
ArgB activity was assessed by a colorimetric assay that followed the release of ADP by measuring the oxidation of NADH at 340 nm, for 30 min, in the presence of pyruvate kinase and lactate dehydrogenase in a PHERAstar plate-reader (BMG-Labtech). […]. Inhibitors were also individually screened against the coupled enzymes to eliminate any compounds interfering with the other assay components. Competition assays were performed in the same conditions using 0.3 mM of ATP or NAG and varying the other substrate concentration.

For another assay, the system named is M. tuberculosis H37Rv. The assay is described as follows: microbe, parasite or virus in culture. It counts as cell-based, Mycobacterium tuberculosis. To be noted: for MIC: Mycobacterium tuberculosis, media without arginine; for Inhibitory activity on growth with arginine present: arginine (1 mM) in the media.
The next assay has as its system M. tuberculosis ΔargB-c. The assay is described as follows: microbe, parasite or virus in culture. It counts as cell-based, Mycobacterium tuberculosis. To be noted: for MIC: Mycobacterium tuberculosis.
Assay [8] concerns M. tuberculosis MDR strain V2475. Nature of the assay: microbe, parasite or virus in culture. It counts as cell-based, Mycobacterium tuberculosis. To be noted: for MIC: Mycobacterium tuberculosis.
Assay [9] addresses T3, ArgD (Mycobacterium tuberculosis, UniProt P9WPZ7). The assay is described as follows: Differential scanning fluorimetry (DSF) against ArgD. It counts as binding. To be noted: fragments at 5 mM, PLP-unsaturated ArgD.
Assay [10] concerns the target T3, ArgD. Nature of the assay: Surface plasmon resonance with immobilised ArgD. Type of assay: binding. The following applies: fragments at 1 mM, adjusted for molecular weight.
Assay [11] addresses T3, ArgD. The assay is described as follows: ArgD end point enzymatic assay (reverse reaction, 2-aminobenzaldehyde, 440 nm). Type of assay: biochemical. Here is the method: To assess the activity of ArgD an end point assay that follows the reverse reaction of the enzyme was used in the presence and absence of fragments. Reactions (100 μL) were set up containing the following: 100 mM Tris-HCl pH 8, 3 mM N-acetylornithine (NAO), 3.4 mM α-KG, 20 μM PLP and 4 μM enzyme. Duplicate reaction mixtures were prepared for each time point and 8 time points (0, 5, 10, 15, 20, 30, 45, 60 min) were tested in total. Two controls were prepared: one with all reaction components except the enzyme, and the other with all reaction components except NAO (NAO was added after HCl treatment). The reactions tubes were allowed to equilibrate in a heating block set at 37 °C for two minutes, and the enzyme was added to initiate the reaction. After the stipulated incubation times, contents of the reaction tubes were quickly transferred to 1.5 ml microcentrifuge tubes containing 60 μL of 6 N HCl to stop the reactions. These tubes were then kept in a heating block set at 95 °C for 30 min, after which they were cooled to 25 °C in a water bath. 200 μL of 3.6 M sodium acetate was added to each tube (final concentration of 1.8 M), along with 40 μL of 30 mM 2-aminobenzaldehyde (final concentration of 3 mM in a total volume of 400 μL). A yellow colouration started developing as soon as the latter was added, the contents were vortexed and the tubes were incubated at 25 °C for 15 min. 200 μL of each reaction mixture was transferred into wells of a 96-well flat bottom UV transparent microplate, and absorbance at 440 nm was measured using the PHERAstar plate reader. All experiments were performed at least in triplicate in a PHERAstar plate-reader (BMG-Labtech) and the control without ArgD was used for blank subtraction. Data were analysed with GraphPad Prism (Graphpad Software). All reagents were obtained from Sigma-Aldrich.
Aminotransferases are often assayed for the reverse reactions they catalyse because in most cases substrates for the forward reaction are not commercially sold. […]

The subject of a further assay is M. tuberculosis. The arrangement: method as in PMID 29483133. To be noted: BALB/c mice, chemical inhibition of ArgJ; cited from earlier work.

These results are taken from publication PMC8220418, “A fragment-based approach to assess the ligandability of ArgB, ArgC, ArgD and ArgF in the L-arginine biosynthetic pathway of Mycobacterium tuberculosis” (Computational and Structural Biotechnology Journal, 2021).

Converted amounts (≈) assume the structure as drawn. A value given as a limit tells only on which side of the number the result lay.

T1 sequence (P9WIT9 whole entry, the tested form may be a part): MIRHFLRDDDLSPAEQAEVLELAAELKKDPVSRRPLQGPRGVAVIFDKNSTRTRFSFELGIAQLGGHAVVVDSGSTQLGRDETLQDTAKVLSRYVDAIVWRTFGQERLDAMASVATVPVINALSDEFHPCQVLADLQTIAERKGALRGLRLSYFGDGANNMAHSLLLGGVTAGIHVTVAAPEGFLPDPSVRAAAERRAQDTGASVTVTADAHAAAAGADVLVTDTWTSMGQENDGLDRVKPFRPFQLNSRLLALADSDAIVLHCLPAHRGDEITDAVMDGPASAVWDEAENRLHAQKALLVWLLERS
T3 sequence (P9WPZ7 whole entry, the tested form may be a part): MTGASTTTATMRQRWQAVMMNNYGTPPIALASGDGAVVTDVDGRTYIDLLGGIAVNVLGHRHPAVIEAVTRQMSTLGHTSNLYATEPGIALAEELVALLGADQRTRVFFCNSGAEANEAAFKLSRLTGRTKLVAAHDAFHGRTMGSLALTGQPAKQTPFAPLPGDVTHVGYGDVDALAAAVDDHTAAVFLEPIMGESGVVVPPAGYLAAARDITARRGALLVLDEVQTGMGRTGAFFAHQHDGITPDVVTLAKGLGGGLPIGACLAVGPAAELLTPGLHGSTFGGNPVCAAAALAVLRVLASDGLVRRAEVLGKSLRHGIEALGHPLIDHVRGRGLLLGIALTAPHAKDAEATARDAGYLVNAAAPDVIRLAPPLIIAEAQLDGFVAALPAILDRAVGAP

As a reminder, the ΔTm is the shift of the melting midpoint relative to a reference. Regarding `NC(=O)NCCC[C@H](N)C(=O)O` [L-citruline, L-citrulline, reference compound], at ArgF [1] (natural ligands at 1 mM, read-out: DSF ΔTm), the ΔTm at 1000 µM is 1 °C.

Take `NCCC[C@H](N)C(=O)O` [L-ornithine, reference compound]: the “DSF ΔTm” value at ArgF [1] (natural ligands at 1 mM) worked out at 1.5 °C.

One may read the Kd as the equilibrium constant for the complex coming apart. As for `Cc1sc(N)nc1-c1ccccc1` [NMR007], on ArgF [1] (read-out: DSF ΔTm), the ΔTm at 5000 µM was found to be 3 °C. The Kd at ArgF [2] was found to be 161 ± 20 µM.

The term IC50 denotes the concentration that inhibits the measured activity by half. `O=c1cc[nH]c2c(C(F)(F)F)cccc12` [NMR446, 8-(trifluoromethyl)-1H-quinolin-4-one]: the ΔTm at 5000 µM at ArgB [3] came out at 8 °C. Also, at ArgB [4], the CPMG entry was “binds” and the “NMR competition with natural ligands (ATP, NAG, L-arginine)” value is reported as “not competitive”. In addition, the STD result at ArgB [5] is “binds”. In addition, the dissociation constant (Kd) on ArgB [6] amounted to 24 ± 1.5 µM. On ArgB [7], the IC50 is 707 ± 7 µM and the “Nature of ArgB inhibition in enzymatic competition assays” value was “non-competitive”. Besides, in the assay with M. tuberculosis H37Rv, the MIC is above 200 mg/L and the “Inhibitory activity on growth with arginine present” value (from here on “Inhibitory activity on growth”) is listed as “no inhibitory activity”. Besides, in the assay on M. tuberculosis ΔargB-c, the “Inhibitory activity on growth” value is given as “no inhibitory activity” and the MIC is above 200 mg/L. In assay [8], this molecule gave an MIC above 200 mg/L.

The term % inhibition denotes the drop in the measured response relative to a control, in per cent. The low end stands for little suppression, the high end for strong suppression. A word on the inhibition: it is the drop in the measured response relative to a control, in per cent. As to `O=C(O)c1cc2ccccc2cc1O` [NMR608, 3-Hydroxy-2-naphthoic acid], on ArgD [9], the ΔTm at 5000 µM was determined as 2.4 °C. Moreover, at ArgD [10], the “SPR Binding Response with PLP injection” value came out at 50.3 RU. Also, on ArgD [11] (2 mM fragment, 4 μM ArgD), the “% inhibition at 2 mM” value is 16.6% and testing at 2000 µM gave an inhibition of 16%. Further, the inhibition at 4000 µM on ArgD [11] (read-out: % inhibition at 4 mM, 4 mM fragment, 4 μM ArgD) was determined as 31%.

`O=c1cc(C(F)(F)F)[nH]c2c(C(F)(F)F)cccc12` [NMR711, 2,8-bis(trifluoromethyl)-1H-quinolin-4-one]: the ΔTm at 5000 µM at ArgB [3] was found to be 7.9 °C. Besides, on ArgB [4], the CPMG result is “binds”. In addition, the “NMR competition with natural ligands (ATP, NAG, L-arginine)” value on ArgB [4] is on record as “not competitive”. For the same molecule, the STD result on ArgB [5] is “binds”. Moreover, the Kd on ArgB [6] worked out at 7.7 ± 0.8 µM. Also, the IC50 on ArgB [7] was 366 ± 4 µM. Besides, the “Nature of ArgB inhibition in enzymatic competition assays” value at ArgB [7] is reported as “non-competitive”. Besides, the MIC (against M. tuberculosis H37Rv; in the assay on M. tuberculosis ΔargB-c; in assay [8]) was 25 to 50 mg/L (≈ 88.9 to 178 µM) each time. Further, the “Inhibitory activity on growth” value in the assay with M. tuberculosis H37Rv was “inhibitory”; in the assay with M. tuberculosis ΔargB-c, “inhibitory”; in [8] (V2475, arginine (1 mM) in the media), “inhibitory”.

In the case of `OB(O)c1cc(Cl)cc(Cl)c1` [NMR812], the ΔTm at 5000 µM on ArgF [1] (read-out: DSF ΔTm) is 3.6 °C. In addition, at ArgF [2], the equilibrium dissociation constant (Kd) was 120 ± 30 µM.

`O=C(Nc1cccc2c(=O)cc(-c3nnn[nH]3)oc12)c1ccc(OCCCCc2ccccc2)cc1` [Pranlukast]: the “Effect on chronic M. tuberculosis infection” value with M. tuberculosis is given as “cleared a chronic M. tuberculosis infection”.
